From ChEMBL document CHEMBL1155729, “Hydrachine A, a novel alkaloid from the roots of Hydrangea chinensis” (J Nat Prod, 2001)
The source made the active and inactive calls. No cut-off for these calls is given here.

What was measured:
HONE1 = experiment: Cytotoxicity against human HONE1 cells; assay type: functional, cell-based
NUGC = experiment: Cytotoxicity against human NUGC cells; assay type: functional, cell-based

SMILES | Activity (HONE1) | Activity (NUGC)
O=C(C[C@@H]1NCCC[C@H]1O)Cn1cnc2ccccc2c1=O | inactive | inactive
CC1(C)[C@@H](n2cnc3ccccc3c2=O)C(=O)C[C@@H]2[C@@H](O)CCCN21 | inactive | inactive
O=C1C[C@@H]2[C@@H](O)CCCN2[C@H](n2cnc3ccccc3c2=O)C1 | inactive | inactive
